Data set [1] in a line: Solubility of docetaxel in distilled water with PVP and HPBCD (Experimental Example 1). Format: physicochemical. How it is done: The solubility of docetaxel was measured by performing liquid chromatography with UV detector (230 nm).
The solubility of docetaxel in distilled water proportionally increases between 10% and 30% of weight ratio (w/v %) of hydroxypropyl β-cyclodextrin (HPBCD).
Further, the ratio of HPBCD relative to docetaxel was at least 1:11 and the concentration of HPBCD will be lowered if the concentration unit (w/v) is converted into (mg/mL) unit. Therefore, docetaxel may be solubilized even when the ratio of docetaxel:HPBCD becomes smaller than 1:11. Therefore, according to the present invention, it is preferable to use more than 1 part by weight of hydroxypropyl β-cyclodextrin (HPBCD), and more preferably 5 parts by weight relative to 1 part by weight of the taxoid.

For data set [2] the following is noted: no additive; cited from earlier work.

On to `CC(=O)O[C@@]12CO[C@@H]1C[C@H](O)[C@@]1(C)C(=O)[C@H](O)C3=C(C)[C@@H](OC(=O)[C@H](O)[C@@H](NC(=O)OC(C)(C)C)c4ccccc4)C[C@@](O)([C@@H](OC(=O)c4ccccc4)[C@H]21)C3(C)C` [docetaxel], for which, in data set [1] (31.1 mg/mL versus 0.000025 mg/mL), the “better solubility with HPBCD versus distilled water” value was determined as 1.2 million. Further, the “solubility of docetaxel added with HPBCD in distilled water” value in data set [1] (with hydroxypropyl β-cyclodextrin (HPBCD)) was determined as 31.1 mg/mL. Also, the “commonly known solubility of docetaxel in distilled water” value in data set [2] is 0.025 µg/mL.

Values taken from patent US20100305202A1, “LYOPHILIZED PHARMACEUTICAL COMPOSITION WITH IMPROVED STABILITY CONTAINING TAXANE DERIVATIVES, AND METHOD OF MANUFACTURING THE SAME” (priority 2007, published 2010).
